Legend:
Glycine max [1] = assay: Fresh pod weight of soybean plants watered with miPEP; type: in vivo; conditions: watering with 0.1 μM miPEP172c vs solvent (FIG. 4)
Description: (§1) After sterilisation of the grains for 3 min in bleach diluted ¼, then rinsing with sterile water, the grains are incubated for 2 hours in water. Lastly, the grains are placed in a petri dish with damp paper towels at 28° C. Once sprouted, the grains are placed in a small pot containing oil dry® medium under a glass cover. After a few days' growth, the plants of which the development is uniform are selected for the experiment and transferred into a larger pot.
(§2) The bacteria are placed in culture in Campbel liquid medium (K2PO4:0.5 g/l, MgSO4 7H2O: 0.2 g/l, NaCl: 0.1 g/l, mannitol: 10 g/l, yeast extract: 2.5 g/l, Casamino acid: 0.5 g/l) (5 ml) at 28° C., then transferred to an Erlenmeyer flask containing 100 ml of Campbel medium. After a few days of culture, when the DO is 0.3 at 595 nm, the 100 ml of culture of B. japonicum were centrifuged for 30 min at 4000 rpm. The supernatant was discarded and the pellet resuspended in “caisson” culture medium (Lullien et al., Plant gene expression in effective and ineffective root nodules of alfalfa (Medicago sativa). Plant Mol Biol 9: 469-478, 1987) to achieve a DO of 0.05 at 595 nm. Each plant is inoculated with 20 ml of this solution. The plants are regularly watered with the “caisson” medium.
(§3) The treatment is performed by watering plants with the concentrated solution of miPEP or the equivalent of solvent solution for the control treatment. […]

Hb2 = assay: Expression of the gene Hb2 in roots of watered soybean plants (qRT-PCR); type: in vivo, Glycine max; conditions: plants watered with miPEP172c at 0,01 μM vs control peptide at 0.01 μM (FIG. 6)
Description: (§4) Each experiment was repeated from two to three times.
(§5) The plants are regularly watered with the “caisson” medium.
(§6) The treatments are performed every two days.

NNC1 = assay: Expression of the gene NNC1 in roots of watered soybean plants (qRT-PCR); type: in vivo, Glycine max; conditions: plants watered with miPEP172c at 0,01 μM vs control peptide at 0.01 μM (FIG. 6)
Description: as §4, §5, §6

Glycine max [2] = assay: Nitrogen concentration in the aerial parts of soybean plants watered with miPEP; type: in vivo; conditions: watering with 0.1 μM miPEP172c vs solvent (FIG. 3)
Description: The “nitrogen content” corresponds to the concentration of nitrogen in the plant or in part of the plant. For example, it can be the concentration of nitrogen in the aerial parts in g of nitrogen per kg of dry leaf weight. This concentration of nitrogen can be determined by techniques known to a person skilled in the art. For example, one method consists of burning a sample of known mass at an elevated temperature (approximately 900° C.) in the presence of oxygen, leading to a release of carbon dioxide, water, and nitrogen. The gases are then passed over particular columns (such as an aqueous potassium hydroxide solution), which absorb the carbon dioxide and water. A column containing a detector of thermal conductivity at the end is then used to separate the nitrogen from all residual carbon dioxide and the water, and the content of residual nitrogen is quantified.
as §5, §6

ENOD40-1 = assay: Expression of the gene ENOD40-1 in roots of watered soybean plants (qRT-PCR); type: in vivo, Glycine max; conditions: plants watered with miPEP172c at 0,01 μM vs control peptide at 0.01 μM (FIG. 6)
Description: as §4, §5, §6

NIN = assay: Expression of the gene NIN in roots of watered soybean plants (qRT-PCR); type: in vivo, Glycine max; conditions: plants watered with miPEP172c at 0,01 μM vs control peptide at 0.01 μM (FIG. 6)
Description: as §4, §5, §6

NSP1 = conditions: plants watered with miPEP172c at 0,01 μM vs control peptide at 0.01 μM (FIG. 6)
Description: as §1, §2, §3

miR172c = assay: Measurement of the expression of miR172c in roots of watered soybean plants (qRT-PCR); type: in vivo, Glycine max; conditions: plants watered with miPEP172c at 0.1 μM vs control (FIG. 1) or 0.01 μM vs control peptide (FIG. 6)
Description: as §4, §5, §6

Glycine max [3] = assay: Root mass (fresh root weight) of soybean plants watered with miPEP; type: in vivo; conditions: watering with miPEP172c vs control peptide at 0.01 μM (FIG. 7)
Description: as §1, §2, §3

nifD = assay: Expression of nifD revealed by nifD-LacZ fusions in nodules; type: in vivo, Glycine max; conditions: nodules of plants treated with miPEP172c vs control peptide (FIGS. 6 and 8)
Description: as §1, §2, §3

nifH = assay: Expression of the gene nifH in roots of watered soybean plants (qRT-PCR); type: in vivo, Glycine max; conditions: plants watered with miPEP172c at 0,01 μM vs control peptide at 0.01 μM (FIG. 6)
Description: as §4, §5, §6

Glycine max [4] = assay: Number of nodules in soybean plants inoculated with Bradirhizobium japonicum and watered with miPEP; type: in vivo; conditions: watering with 0.1 μM miPEP vs solvent (FIGS. 2, 9) or control peptide (FIG. 5)
Description: as §1, §2, §3

Row | Substance | fresh pod weight (Glycine max [1]) | relative expression of the gene Hb2 (Hb2) | relative expression of the gene NNC1 (NNC1) | nitrogen content of the aerial parts (Glycine max [2]) | relative expression of the gene ENOD40-1 (ENOD40-1) | relative expression of the gene NIN (NIN) | relative expression of the gene NSP1 (NSP1) | relative expression of miR172c (miR172c) | development of the roots (fresh root weight) (Glycine max [3]) | fixation of nitrogen (NifH expression by RT-qPCR and nifD::LacZ fusions) (nifD) | relative expression of the gene NifH (nifH) | number of nodules (per gram of fresh root weight) (Glycine max [4])
1 | miPEP172c: peptide MWVLCLFCWPTYTHGS coded by an open reading frame of the primary transcript of miR172c in Glycine max (SEQ ID NO: 2; Glycine max) | significantly increases | increase | reducing | significantly increases | increase | increase | increase | increases | No effect | effective fixation of nitrogen | increase | significantly increases
2 | miPEP167c: peptide MKGVHHFFHHKYVGLRG coded by an open reading frame of the primary transcript of miR167c in Glycine max (Glycine max) | – | – | – | – | – | – | – | – | – | – | – | significantly increases

From patent publication US20250127136A1, “NOVEL METHOD FOR PROMOTING NODULATION IN PLANTS” (UNIVERSITE TOULOUSE III-PAUL SABATIER, priority 2015, published 2025)
